Measurements taken from ChEMBL document CHEMBL3885881, “DrugMatrix”.

Organism: Rattus norvegicus
Experiment: DrugMatrix - Regimen: Daily Repeat
Format: toxicity, organism-based, Sprague-Dawley
Design: regimen Daily Repeat, gender Male, age 6-8 weeks
Conditions: in vivo, po, route oral GAVAGE, vehicle .5 % CMC; for BASOPHIL / EOSINOPHIL / ERYTHROCYTE COUNT / HEMATOCRIT / HEMOGLOBIN / LEUKOCYTE COUNT / LYMPHOCYTE / MEAN CORPUSCULAR HEMOGLOBIN / MEAN CORPUSCULAR HEMOGLOBIN CONCENTRATION / MEAN CORPUSCULAR VOLUME / MONOCYTE / NEUTROPHIL / PLATELET COUNT: tissue Blood; for ALANINE AMINOTRANSFERASE / ALBUMIN / ALKALINE PHOSPHATASE / ASPARTATE AMINOTRANSFERASE / BLOOD UREA NITROGEN / CHLORIDE / CHOLESTEROL / CREATINE PHOSPHOKINASE / CREATININE / GLUCOSE / PHOSPHORUS / POTASSIUM / SODIUM / TOTAL BILIRUBIN / TOTAL PROTEIN: tissue Plasma
[1] = 0 mg/kg, 72 h, dose level Control, time 3 day
[2] = 0 mg/kg, 120 h, dose level Control, time 5 day
[3] = 59 mg/kg, 72 h, dose level Low, time 3 day
[4] = 59 mg/kg, 120 h, dose level Low, time 5 day

`CC[C@@H](CO)NCCN[C@@H](CC)CO` [ETHAMBUTOL] was tested, and the BASOPHIL [1] was 0%, the EOSINOPHIL [1] was 0.33% and the “ERYTHROCYTE COUNT” value [1] was 6.2 x10E6/uL. The HEMATOCRIT [1] was 38.08%, the HEMOGLOBIN [1] was 14.92 G/DL and the “LEUKOCYTE COUNT” value [1] was 11.13 x10E3/uL. For the same compound, the LYMPHOCYTE [1] was 76%, the “MEAN CORPUSCULAR HEMOGLOBIN” value [1] was 24.1 pg and the “MEAN CORPUSCULAR HEMOGLOBIN CONCENTRATION” value [1] was 39.17 G/DL. For the same compound, the “MEAN CORPUSCULAR VOLUME” value [1] was 61.48 fL, the MONOCYTE [1] was 3.83% and the NEUTROPHIL [1] was 19.83%. For the same compound, the “PLATELET COUNT” value [1] was 1327.5 x10E3/uL, the “ALANINE AMINOTRANSFERASE” value [1] was 40.17 u/L and the ALBUMIN [1] was 4.07 G/DL. The “ALKALINE PHOSPHATASE” value [1] was 372 u/L, the “ASPARTATE AMINOTRANSFERASE” value [1] was 67.17 u/L and the “BLOOD UREA NITROGEN” value [1] was 18.83 mg/dL. For the same compound, the CHLORIDE [1] was 105.17 MEQ/L, the CHOLESTEROL [1] was 78.17 mg/dL and the “CREATINE PHOSPHOKINASE” value [1] was 149.17 u/L. For the same compound, the CREATININE [1] was 0.57 mg/dL, the GLUCOSE [1] was 185.17 mg/dL and the PHOSPHORUS [1] was 11.43 mg/dL. The POTASSIUM [1] was 6.78 MEQ/L, the SODIUM [1] was 152.83 MEQ/L and the “TOTAL BILIRUBIN” value [1] was 0.4 mg/dL. For the same compound, the “TOTAL PROTEIN” value [1] was 6.87 G/DL, the BASOPHIL [2] was 0% and the EOSINOPHIL [2] was 0%. For the same compound, the “ERYTHROCYTE COUNT” value [2] was 6.05 x10E6/uL, the HEMATOCRIT [2] was 36.55% and the HEMOGLOBIN [2] was 14.7 G/DL. The “LEUKOCYTE COUNT” value [2] was 11.8 x10E3/uL, the LYMPHOCYTE [2] was 86.83% and the “MEAN CORPUSCULAR HEMOGLOBIN” value [2] was 24.37 pg. For the same compound, the “MEAN CORPUSCULAR HEMOGLOBIN CONCENTRATION” value [2] was 40.32 G/DL, the “MEAN CORPUSCULAR VOLUME” value [2] was 60.47 fL and the MONOCYTE [2] was 0.83%. For the same compound, the NEUTROPHIL [2] was 12.33%, the “PLATELET COUNT” value [2] was 1177 x10E3/uL and the “ALANINE AMINOTRANSFERASE” value [2] was 41.83 u/L. The ALBUMIN [2] was 3.75 G/DL, the “ALKALINE PHOSPHATASE” value [2] was 377.5 u/L and the “ASPARTATE AMINOTRANSFERASE” value [2] was 60.83 u/L. The “BLOOD UREA NITROGEN” value [2] was 16 mg/dL, the CHLORIDE [2] was 105.67 MEQ/L and the CHOLESTEROL [2] was 67.83 mg/dL. For the same compound, the “CREATINE PHOSPHOKINASE” value [2] was 120.33 u/L, the CREATININE [2] was 0.6 mg/dL and the GLUCOSE [2] was 167.67 mg/dL. For the same compound, the PHOSPHORUS [2] was 10.03 mg/dL, the POTASSIUM [2] was 6.68 MEQ/L and the SODIUM [2] was 150.5 MEQ/L. The “TOTAL BILIRUBIN” value [2] was 0.57 mg/dL, the “TOTAL PROTEIN” value [2] was 6.25 G/DL and the BASOPHIL [3] was 0%. The EOSINOPHIL [3] was 0.67%, the “ERYTHROCYTE COUNT” value [3] was 6.09 x10E6/uL and the HEMATOCRIT [3] was 36.33%. For the same compound, the HEMOGLOBIN [3] was 14.2 G/DL, the “LEUKOCYTE COUNT” value [3] was 11.65 x10E3/uL and the LYMPHOCYTE [3] was 88%. The “MEAN CORPUSCULAR HEMOGLOBIN” value [3] was 23.7 pg, the “MEAN CORPUSCULAR HEMOGLOBIN CONCENTRATION” value [3] was 39.55 G/DL and the “MEAN CORPUSCULAR VOLUME” value [3] was 59.63 fL. For the same compound, the MONOCYTE [3] was 0.33%, the NEUTROPHIL [3] was 11% and the “PLATELET COUNT” value [3] was 1231 x10E3/uL. The “ALANINE AMINOTRANSFERASE” value [3] was 35.33 u/L, the ALBUMIN [3] was 3.63 G/DL and the “ALKALINE PHOSPHATASE” value [3] was 327.67 u/L. The “ASPARTATE AMINOTRANSFERASE” value [3] was 58.33 u/L, the “BLOOD UREA NITROGEN” value [3] was 11.67 mg/dL and the CHLORIDE [3] was 104.33 MEQ/L. The CHOLESTEROL [3] was 68 mg/dL, the “CREATINE PHOSPHOKINASE” value [3] was 185 u/L and the CREATININE [3] was 0.57 mg/dL. For the same compound, the GLUCOSE [3] was 165.33 mg/dL, the PHOSPHORUS [3] was 12.53 mg/dL and the POTASSIUM [3] was 6.5 MEQ/L. For the same compound, the SODIUM [3] was 149.67 MEQ/L, the “TOTAL BILIRUBIN” value [3] was 0.27 mg/dL and the “TOTAL PROTEIN” value [3] was 5.9 G/DL. For the same compound, the BASOPHIL [4] was 0%, the EOSINOPHIL [4] was 0% and the “ERYTHROCYTE COUNT” value [4] was 6.14 x10E6/uL. The HEMATOCRIT [4] was 38.6%, the HEMOGLOBIN [4] was 15.1 G/DL and the “LEUKOCYTE COUNT” value [4] was 11.85 x10E3/uL. The LYMPHOCYTE [4] was 89.33%, the “MEAN CORPUSCULAR HEMOGLOBIN” value [4] was 24.7 pg and the “MEAN CORPUSCULAR HEMOGLOBIN CONCENTRATION” value [4] was 39.2 G/DL. For the same compound, the “MEAN CORPUSCULAR VOLUME” value [4] was 63.03 fL, the MONOCYTE [4] was 0.67% and the NEUTROPHIL [4] was 10%. For the same compound, the “PLATELET COUNT” value [4] was 1247.67 x10E3/uL, the “ALANINE AMINOTRANSFERASE” value [4] was 27.67 u/L and the ALBUMIN [4] was 3.57 G/DL. The “ALKALINE PHOSPHATASE” value [4] was 273.67 u/L, the “ASPARTATE AMINOTRANSFERASE” value [4] was 55 u/L and the “BLOOD UREA NITROGEN” value [4] was 11.33 mg/dL. For the same compound, the CHLORIDE [4] was 105.67 MEQ/L, the CHOLESTEROL [4] was 89 mg/dL and the “CREATINE PHOSPHOKINASE” value [4] was 135.33 u/L. It also gave a CREATININE [4] of 0.5 mg/dL, a GLUCOSE [4] of 157.67 mg/dL and a PHOSPHORUS [4] of 11.8 mg/dL. For the same compound, the POTASSIUM [4] was 6.47 MEQ/L, the SODIUM [4] was 151.33 MEQ/L and the “TOTAL BILIRUBIN” value [4] was 0.2 mg/dL. For the same compound, the “TOTAL PROTEIN” value [4] was 6 G/DL.
